Experimental data taken from patent publication US20090275648A1, “MACROCYCLIC GHRELIN RECEPTOR ANTAGONISTS AND INVERSE AGONISTS AND METHODS OF USING THE SAME” (priority 2005, published 2009).

Target: ghrelin receptor (Homo sapiens, UniProt Q92847)
Experiment: Inverse agonist assay, Example 4
Type: cell-based
Details: inverse agonist activity
Text: The inverse agonist activity at the ghrelin receptor for compounds of the invention can be determined using the methods described in Intl. Pat. Appl. Publ. No. WO 2004/056869 and Holst, B.; Cygankiewicz, A.; Halkjaer, T.; Ankersen, A.; Schwartz, T. W. High constitutive signaling of the ghrelin receptor—identification of a potent inverse agonist. Mol. Endocrinol. 2003, 17, 2201-2210.

ghrelin receptor, sequence (Q92847 whole entry): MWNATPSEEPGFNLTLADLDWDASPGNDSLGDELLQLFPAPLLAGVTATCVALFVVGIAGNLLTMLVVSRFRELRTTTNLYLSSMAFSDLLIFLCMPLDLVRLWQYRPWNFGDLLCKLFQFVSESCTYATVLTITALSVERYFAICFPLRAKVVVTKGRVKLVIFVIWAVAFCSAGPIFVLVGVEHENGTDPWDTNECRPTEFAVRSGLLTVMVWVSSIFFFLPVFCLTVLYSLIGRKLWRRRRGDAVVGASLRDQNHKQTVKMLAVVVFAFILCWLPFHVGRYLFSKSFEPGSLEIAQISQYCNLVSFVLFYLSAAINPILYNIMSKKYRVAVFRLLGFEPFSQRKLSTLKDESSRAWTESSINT

Structure (SMILES): CCC(C)[C@@H]1NCCOc2ccccc2/C=C/CNC(=O)[C@@H](Cc2ccccc2)NC(=O)[C@H](C(C)O)N(C)C1=O (stereo partly shown) [Compound 502]
- IC50: 1 to 100 nM
